Laboratory results from publication PMC10965668, “Combined use of multiparametric high-content-screening and in vitro circadian reporter assays in neurotoxicity evaluation” (Archives of Toxicology, 2024).
Read-outs that look alike come from different tables or passages of the source. Marks after values point to notes of the source that are not given here.

Key:
Assay type in all cases: cell-based, human
[1] = test system: U87 MG/PER2-dLuc cells; assay: cells; details: 72 h treatment
Protocol: U87 MG/PER2-dLuc cells were subjected to the 3-(4, 5-dimethylthiazol-2-yl)-2, 5-diphenyl tetrazolium bromide (MTT) (M2128; Sigma-Aldrich) assay. […] Briefly, U87 MG/PER2-dLuc cells were seeded in 96-well plates at a density of 10^5 cells/mL, incubated for 48 h, and treated with relevant chemicals at various concentrations for 72 h. Subsequently, the media with chemicals were decanted and 20μl of MTT reagent solution (5 mg/ml) with 80μl of the media was added to all wells the plates and were incubated for 2 h until the formation of formazan crystals. The reagent solution was decanted, and 100μl of DMSO (D8418; Sigma-Aldrich) was added. Absorbance was measured at 570 nm using a spectrophotometer (Molecular Devices). The values of triplicate same-treatment wells were averaged.

[2] = test system: U87 MG/PER2-dLuc cells; assay: in vitro cellular bioluminescence (PER2-dLuc circadian reporter) assay; details: for concentration that disrupted the cellular circadian rhythm / concentration with no disruptive effect on cellular circadian rhythm: Fig. 3; for LOAEL Circadian disruption: U87 MG/PER2-dLuc cells, bioluminescence monitored 5 days; for effect on cellular circadian rhythm: at disrupting concentration: MPP + ≥ 30 µM, DDT 10 µM, PMX ≥ 30 µM, CPX ≥ 40 µM, CPF 1.5 µM
Protocol: U-87 MG (ATCC® HTB-14™) is a well-recognized human glioblastoma cell line widely used in the field of neuroscience. U87 MG cells have a regular and strong cellular circadian rhythm after transfection with a circadian gene (i.e., BMAL1) reporter vector (Jung et al. [2013]; Slat et al. [2017]). As described in our previous report (Fang et al. [2015], [2017]), U87 MG cells were transfected with a circadian reporter vector pGL [PER2P (Luc2P/Neo)] expressing destabilized firefly luciferase driven by the human PER2 promoter using FuGene HD™ transfection reagent (LightSwitch Genomics), and stably transfected cells were selected and cultured with 1000 μg/mL G418 (Invitrogen). The stably transfected cells were used to examine the cellular circadian rhythm using an in vitro cellular bioluminescence assay. U87 MG/PER2P-dLuc cells were cultured in Eagle’s minimum essential medium (EMEM) (11430030; Gibco) supplemented with 5% fetal bovine serum (FBS) (26140079; Gibco) and 1% penicillin/streptomycin (15140122; Gibco) at 37 °C in an atmosphere of 95% humidity and 5% CO2.
(§1) Briefly, cultured U87 MG/PER2 -dLuc cells were seeded in 35-mm dishes at 3 × 10^5 cells/dish and incubated until 70–80% confluency was reached. The cells were FBS-starved for three days at 70% confluency and then synchronized with 50% horse serum (16050122; Gibco) (Balsalobre et al. [1998]). After decanting and washing, recording medium (EMEM with 20% of growing medium containing 5% FBS, 6.5 mM sodium bicarbonate, 10 mM HEPES buffer [pH 7.2], 0.1 mM luciferin [E1602; Promega], and 50 U/mL penicillin and 50 µg/mL streptomycin) was added. Subsequently, the cells were treated with each compound. The 35-mm dishes were sealed with a sterile glass cover slide using silicon grease and subjected to continuous monitoring with a LumiCycle 32™ (Actimetrics) for 5 days. The analytical method was optimized according to the instruction manual of the LumiCycle Analysis Software (Actimetrics). Using this software, data were detrended (running average), and best fits to a sine wave were estimated using the Levenberg–Marquardt algorithm for period, phase, amplitude, and damping rate measurements, as previously reported (Chen et al. [2012]; Fang et al. [2015], [2017]).

[3] = test system: U87 MG/PER2-dLuc cells; assay: multiparametric high-content screening (HCS) assay; details: for LOAEL MMP (mitochondrial membrane potential): TMRM; for LOAEL CA (calcium ion): Fluo-4 AM; for lowest concentration with decrease in MMP / concentrations that decreased nuclear size: 24 h of treatment; for LOAEL LP (lipid peroxidation): BODIPY 665/676; for LOAEL NC (nuclear size): Hoechst 33342; for concentrations with increased lipid peroxidation / concentrations that changed nuclear size: 72 h of treatment; for concentrations that changed nuclear size: MHg biphasic changes, MPP + reduction; for concentrations that decreased nuclear size: p < 0.01, text
Protocol: A multiparametric analysis of compound toxicity at the level of individual cells was conducted using the HCS method established by Tolosa et al. ([2012]) to assess the liver toxicity of chemicals and drugs. Briefly, U87 MG/PER2-dLuc cells were seeded in 96-well plates specific for HCS at a density of 10^4 cells/well. […] Following these treatments, cells were treated with a mixture of Hoechst 33342 (Hoechst) (B2261; Sigma-Alrich) at 1.5 µg/mL to assess the nuclear size (NC), 75 ng/mL tetramethyl rhodamine methyl ester (TMRM) (T-668; Molecular Probes) as a mitochondrial membrane potential (MMP) sensor, 0.24 µM fluo-4 acetoxymethyl ester (Fluo-4 AM) (F14217; Molecular Probes) to detect intracellular calcium ions (Ca^2+), and 1.5 µg/mL of (E,E)-3,5-bis-(4-phenyl-1,3-butadienyl)-4,4-difluoro-4-bora-3a,4a-diaza-s-indacene (BODIPY 665/676) (b-3932; Molecular Probes) to evaluate lipid peroxidation. After incubation for 1 h, the cells were imaged using an IN Cell Analyzer 6000 (GE Healthcare Life Sciences) and analyzed using IN Cell Miner HCM. The data were analyzed with IN Cell Analyzer 6000 Analysis Software. Nuclear morphological alterations were assessed based on the Hoechst staining. The nucleus was defined as the main object detected using an edge detection algorithm. To separate individual cells, segmentation was applied. All measurements were restricted to live cells. Lipid peroxidation was detected based on BODIPY fluorescence intensity in the cytoplasm. The cellular MMP was defined as the TMRM fluorescence intensity in punctate cytosolic regions surrounding the nucleus. Fluo-4 intensity was used to measure changes in the cytosolic-free Ca^2+ concentration. An intensity algorithm with a fixed threshold was used to measure TMRM, Fluo-4, and BODIPY fluorescence. Each measurement was performed in individual cells. The values of triplicate same-treatment wells were averaged and normalized to the average value of vehicle control (0.1% DMSO-treated or naïve cells).
The values of triplicate same-treatment wells were averaged and normalized to the average value of the negative control group, and differences in parameters between concentrations were analyzed using one-way ANOVA followed by Duncan’s tests. A p-value < 0.05 was considered significant.

[4] = test system: U87 MG/PER2-dLuc cells; assay: cellular circadian rhythm assay with neurotoxicants in the presence of antioxidants; details: for restoration of circadian rhythm disrupted by CPF: 1.5 µM CPF, 20 µM NAC, 12.5 µM (or 25 µM) MSC; for effect on circadian rhythm disrupted by MHg: 2.0 µM MHg, co-treatment with NAC and MSC; for restoration of cellular rhythm disrupted by DDT: 10 µM DDT, co-treatment with NAC (10 or 20 µM) or MSC (12.5 or 25 µM); for restoration of MPP + -disrupted rhythmicity: MPP + at LOAEL, restored rhythm not similar to that of control cells
Protocol: as §1
The cellular circadian rhythm was recorded as described above.

[5] = Homo sapiens, U-87 MG, no unit with values, axis Concentration[μM], read-out: IC50 (cell viability, MTT; Fig. 1)
[6] = Homo sapiens, U-87 MG, read-out: IC50 (MTT, Table 1)

Compound | IC15 (MTT, Table 1) [1] | IC50 ([1]; read-out: IC50 (MTT, Table 1)) | concentration that disrupted the cellular circadian rhythm [2] | LOAEL Circadian disruption [2] | effect on cellular circadian rhythm [2] | LOAEL MMP (mitochondrial membrane potential) ([3]; 24-h treatment) | LOAEL CA (calcium ion) ([3]; 72-h treatment) | lowest concentration with decrease in MMP [3] | LOAEL CA (calcium ion) ([3]; 24-h treatment) | concentration that increased intracellular Ca2+ levels ([3]; 72-h timepoint) | LOAEL LP (lipid peroxidation) ([3]; 72-h treatment) | concentrations with increased lipid peroxidation [3] | also measured
polymyxin B [PMX] | 49 µM | 51 µM | ≥ 30 µM | 30 µM | advanced phase and decreased amplitude | 3.91* µM | 3.91** µM | 3.91 µM | – | – | – | – | concentration with no disruptive effect on cellular circadian rhythm [2]: 15 µM
C[n+]1ccc(-c2ccccc2)cc1 [MPP +, 1-methyl-4-phenylpyridinium] | 68.4 µM | 93 µM | ≥ 30 µM | 30 µM | advanced phase and decreased amplitude | 40* µM | 0.63 µM | 40 µM | 40 µM | 0.63 µM | 160 µM | > 160 µM | concentration with no disruptive effect on cellular circadian rhythm [2]: 10 µM; concentration that increased intracellular Ca2+ levels ([3]; 24-h timepoint): 40 µM; LOAEL NC (nuclear size) ([3]; 72-h treatment): 80 µM; concentrations that changed nuclear size [3]: 80 to 120 µM
O=C(O)c1cn(C2CC2)c2cc(N3CCNCC3)c(F)cc2c1=O [CPX, ciprofloxacin] | 19.8 µM | – | ≥ 40 µM | 40 µM | increased the circadian rhythm | 0.94** µM | 0.94** µM | 0.94 µM | – | > 0.94 µM | 0.94** µM | > 0.94 µM | IC50 [1, 5]: 98.3 µM; IC50 [1, 6]: 98 µM; IC50 ([1]; Homo sapiens, U-87 MG, read-out: IC50 (cell viability, MTT)): 98.3 µM
CCOP(=S)(OCC)Oc1nc(Cl)c(Cl)cc1Cl [CPF, chlorpyrifos] | 13.9 µM | – | 1.5 µM | 1.5 µM | abolished the cellular circadian rhythm | 1.41** µM | 0.7** µM | 1.41 µM | 1.41** µM | – | – | – | IC50 [1, 5]: 43.7 µM; IC50 [1, 6]: 60 µM; concentrations that increased the intracellular Ca2+ level ([3]; both the 24- and 72-h timepoints): 0.7 to 45 µM
Clc1ccc(C(c2ccc(Cl)cc2)C(Cl)(Cl)Cl)cc1 [DDT, 4,4′-dichlorodiphenyltrichloroethane] | 18.3 µM | 60 µM | 10 µM | 10 µM | robust rhythm was gradually abolished | 15 µM | 0.47** µM | 15 µM | 30** µM | > 0.47 µM | – | – | LOAEL NC (nuclear size) ([3]; 24-h treatment): 120** µM; concentrations that decreased nuclear size [3]: 120 µM
CC(=O)N[C@@H](CS)C(=O)O [NAC, N-acetyl-L-cysteine] | – | – | – | – | – | – | – | – | – | – | – | – | restoration of circadian rhythm disrupted by CPF [4]: restored the circadian rhythm; effect on circadian rhythm disrupted by MHg [4]: reduced the first high-altitude peak; restoration of cellular rhythm disrupted by DDT [4]: restored the cellular rhythm; restoration of MPP + -disrupted rhythmicity [4]: restore the cellular circadian rhythm to a certain extent
C[Se]C[C@H](N)C(=O)O [MSC, methylselenocysteine] | – | – | – | – | – | – | – | – | – | – | – | – | restoration of circadian rhythm disrupted by CPF [4]: restored the circadian rhythm; effect on circadian rhythm disrupted by MHg [4]: reduced the first high-altitude peak; restoration of cellular rhythm disrupted by DDT [4]: restored the cellular rhythm; restoration of MPP + -disrupted rhythmicity [4]: restore the cellular circadian rhythm to a certain extent
[CH3][Hg][Cl] [MHg, methylmercury (II) chloride] | 2.5 µM | 3.9 µM | 2.0 µM | – | – | 0.5* µM | 0.031** µM | 0.5 µM | – | above 0.03 µM | 0.031** µM | above 0.031 µM | IC50 ([1]; read-out: IC50 (cell viability, MTT)): 3.97 µM; LOAEL LP (lipid peroxidation) ([3]; 24-h treatment): 8** µM; LOAEL NC (nuclear size) ([3]; 24-h treatment): 4** µM; LOAEL NC (nuclear size) ([3]; 72-h treatment): 4** µM; concentration that significantly reduced lipid peroxidation levels ([3]; 24 h after treatment): 8.0 µM; concentrations that decreased nuclear size [3]: 4 to 8 µM; concentrations that changed nuclear size [3]: 2 to 8 µM
